Results reported in ChEMBL document CHEMBL5537115, “New broad-spectrum and potent antibacterial agents with dual-targeting mechanism: Promoting FtsZ polymerization and disrupting bacterial membranes” (Eur J Med Chem, 2024).

Assays:
Assay type in all cases: functional
Streptococcus pyogenes [1] = experiment: Antibacterial activity against erythromycin-resistant Streptococcus pyogenes 2 clinical isolate assessed as bacterial growth inhibition incubated for 20 hrs by CLSI based broth microdilution method
[2] = tested on: Staphylococcus epidermidis; experiment: Antibacterial activity against penicillin-resistant Staphylococcus epidermidis clinical isolate assessed as bacterial growth inhibition incubated for 20 hrs by CLSI based broth microdilution method
Staphylococcus aureus [3] = experiment: Antibacterial activity against Staphylococcus aureus clinical isolate assessed as bacterial growth inhibition incubated for 20 hrs by CLSI based broth microdilution method
Staphylococcus aureus [4] = experiment: Antibacterial activity against penicillin-resistant Staphylococcus aureus ATCC31007 assessed as bacterial growth inhibition incubated for 20 hrs by CLSI based broth microdilution method
Staphylococcus aureus [5] = experiment: Antibacterial activity against methicillin-resistant Staphylococcus aureus ATCC43300 assessed as bacterial growth inhibition incubated for 20 hrs by CLSI based broth microdilution method
Klebsiella pneumoniae = experiment: Antibacterial activity against Klebsiella pneumoniae ATCC BAA-1902 assessed as bacterial growth inhibition incubated for 20 hrs by CLSI based broth microdilution method
Acinetobacter baumannii = experiment: Antibacterial activity against Acinetobacter baumannii ATCC19606 assessed as bacterial growth inhibition incubated for 20 hrs by CLSI based broth microdilution method
Escherichia coli [6] = experiment: Antibacterial activity against wild-type Escherichia coli BW25113 assessed as bacterial growth inhibition incubated for 20 hrs by CLSI based broth microdilution method
Escherichia coli [7] = experiment: Antibacterial activity against penicillin-susceptible Escherichia coli ATCC25922 assessed as bacterial growth inhibition incubated for 20 hrs by CLSI based broth microdilution method
Enterococcus faecium [8] = experiment: Antibacterial activity against vancomycin-susceptible Enterococcus faecium ATCC19434 assessed as bacterial growth inhibition incubated for 20 hrs by CLSI based broth microdilution method
Enterococcus faecalis [9] = experiment: Antibacterial activity against vancomycin-susceptible Enterococcus faecalis ATCC29212 assessed as bacterial growth inhibition incubated for 20 hrs by CLSI based broth microdilution method
Streptococcus pyogenes [10] = experiment: Antibacterial activity against erythromycin-susceptible Streptococcus pyogenes 1 assessed as bacterial growth inhibition incubated for 20 hrs by CLSI based broth microdilution method
Staphylococcus aureus [11] = experiment: Antibacterial activity against erythromycin-susceptible Staphylococcus aureus ATCC25923 assessed as bacterial growth inhibition incubated for 20 hrs by CLSI based broth microdilution method
Bacillus pumilus = experiment: Antibacterial activity against penicillin-susceptible Bacillus pumilus CMCC63202 assessed as bacterial growth inhibition incubated for 20 hrs by CLSI based broth microdilution method
Bacillus subtilis = experiment: Antibacterial activity against penicillin-susceptible Bacillus subtilis ATCC9372 assessed as bacterial growth inhibition incubated for 20 hrs by CLSI based broth microdilution method
Enterococcus faecalis [12] = experiment: Antibacterial activity against vancomycin-resistant Enterococcus faecalis ATCC51299 assessed as bacterial growth inhibition incubated for 20 hrs by CLSI based broth microdilution method
Enterococcus faecium [13] = experiment: Antibacterial activity against vancomycin-resistant Enterococcus faecium ATCC51559 assessed as bacterial growth inhibition incubated for 20 hrs by CLSI based broth microdilution method

C[n+]1cc(-c2ccccc2)c(/C=C/c2ccc(N)cc2)cc1-c1ccc(C(C)(C)C)cc1.[I-]
MIC (Streptococcus pyogenes [1]): 2 µg/mL | MIC [2]: 4 µg/mL | MIC (Staphylococcus aureus [3]): 0.25 µg/mL | MIC (Staphylococcus aureus [4]): 2 µg/mL | MIC (Staphylococcus aureus [5]): 0.5 µg/mL | MIC (Klebsiella pneumoniae): 16 µg/mL | MIC (Acinetobacter baumannii): 4 µg/mL | MIC (Escherichia coli [6]): 32 µg/mL | MIC (Escherichia coli [7]): 16 µg/mL | MIC (Enterococcus faecium [8]): 4 µg/mL | MIC (Enterococcus faecalis [9]): 4 µg/mL | MIC (Streptococcus pyogenes [10]): 4 µg/mL | MIC (Staphylococcus aureus [11]): 0.125 µg/mL | MIC (Bacillus pumilus): 2 µg/mL | MIC (Bacillus subtilis): 0.5 µg/mL | MIC (Enterococcus faecalis [12]): 4 µg/mL | MIC (Enterococcus faecium [13]): 4 µg/mL

C[n+]1cc(-c2ccccc2)cc(/C=C/c2ccc(Br)cc2)c1-c1ccccc1.[I-]
MIC (Streptococcus pyogenes [1]): 4 µg/mL | MIC [2]: 8 µg/mL | MIC (Staphylococcus aureus [3]): 2 µg/mL | MIC (Staphylococcus aureus [4]): 16 µg/mL | MIC (Staphylococcus aureus [5]): 4 µg/mL | MIC (Klebsiella pneumoniae): 64 µg/mL | MIC (Acinetobacter baumannii): 8 µg/mL | MIC (Escherichia coli [6]): > 64 µg/mL | MIC (Escherichia coli [7]): 64 µg/mL | MIC (Enterococcus faecium [8]): 16 µg/mL | MIC (Enterococcus faecalis [9]): 16 µg/mL | MIC (Streptococcus pyogenes [10]): 4 µg/mL | MIC (Staphylococcus aureus [11]): 1 µg/mL | MIC (Bacillus pumilus): 8 µg/mL | MIC (Bacillus subtilis): 2 µg/mL | MIC (Enterococcus faecalis [12]): 16 µg/mL | MIC (Enterococcus faecium [13]): 16 µg/mL

C[n+]1cc(-c2ccccc2)c(/C=C/c2ccc(Cl)c(Cl)c2)cc1-c1ccc(C(C)(C)C)cc1.[I-]
MIC (Streptococcus pyogenes [1]): 4 µg/mL | MIC [2]: 2 µg/mL | MIC (Staphylococcus aureus [3]): 1 µg/mL | MIC (Staphylococcus aureus [4]): 2 µg/mL | MIC (Staphylococcus aureus [5]): 1 µg/mL | MIC (Klebsiella pneumoniae): > 64 µg/mL | MIC (Acinetobacter baumannii): 4 µg/mL | MIC (Escherichia coli [6]): 8 µg/mL | MIC (Escherichia coli [7]): > 64 µg/mL | MIC (Enterococcus faecium [8]): 1 µg/mL | MIC (Enterococcus faecalis [9]): 2 µg/mL | MIC (Streptococcus pyogenes [10]): 8 µg/mL | MIC (Staphylococcus aureus [11]): 2 µg/mL | MIC (Bacillus pumilus): 2 µg/mL | MIC (Bacillus subtilis): 2 µg/mL | MIC (Enterococcus faecalis [12]): 2 µg/mL | MIC (Enterococcus faecium [13]): 1 µg/mL

Cc1ccc(/C=C/c2cc(-c3ccc(C(C)(C)C)cc3)[n+](C)cc2-c2ccccc2C)cc1.[I-]
MIC (Streptococcus pyogenes [1]): 4 µg/mL | MIC [2]: 2 µg/mL | MIC (Staphylococcus aureus [3]): 0.5 µg/mL | MIC (Staphylococcus aureus [4]): 2 µg/mL | MIC (Staphylococcus aureus [5]): 0.5 µg/mL | MIC (Klebsiella pneumoniae): 8 µg/mL | MIC (Acinetobacter baumannii): 4 µg/mL | MIC (Escherichia coli [6]): 8 µg/mL | MIC (Escherichia coli [7]): 8 µg/mL | MIC (Enterococcus faecium [8]): 2 µg/mL | MIC (Enterococcus faecalis [9]): 4 µg/mL | MIC (Streptococcus pyogenes [10]): 2 µg/mL | MIC (Staphylococcus aureus [11]): 1 µg/mL | MIC (Bacillus pumilus): 1 µg/mL | MIC (Bacillus subtilis): 0.5 µg/mL | MIC (Enterococcus faecalis [12]): 2 µg/mL | MIC (Enterococcus faecium [13]): 2 µg/mL

C[n+]1cc(-c2ccccc2)c(/C=C/c2ccc(N3CCCC3)cc2)cc1-c1ccc2ccccc2c1.[I-]
MIC (Streptococcus pyogenes [1]): 1 µg/mL | MIC [2]: 2 µg/mL | MIC (Staphylococcus aureus [3]): 0.5 µg/mL | MIC (Staphylococcus aureus [4]): 1 µg/mL | MIC (Staphylococcus aureus [5]): 0.5 µg/mL | MIC (Klebsiella pneumoniae): 16 µg/mL | MIC (Acinetobacter baumannii): 1 µg/mL | MIC (Escherichia coli [6]): 4 µg/mL | MIC (Escherichia coli [7]): 64 µg/mL | MIC (Enterococcus faecium [8]): 1 µg/mL | MIC (Enterococcus faecalis [9]): 2 µg/mL | MIC (Streptococcus pyogenes [10]): 0.5 µg/mL | MIC (Staphylococcus aureus [11]): 0.5 µg/mL | MIC (Bacillus pumilus): 1 µg/mL | MIC (Bacillus subtilis): 1 µg/mL | MIC (Enterococcus faecalis [12]): 2 µg/mL | MIC (Enterococcus faecium [13]): 2 µg/mL

C[n+]1cc(-c2ccccc2)cc(/C=C/c2ccc(C(C)(C)C)cc2)c1-c1ccccc1.[I-]
MIC (Streptococcus pyogenes [1]): 2 µg/mL | MIC [2]: 2 µg/mL | MIC (Staphylococcus aureus [3]): 2 µg/mL | MIC (Staphylococcus aureus [4]): 4 µg/mL | MIC (Staphylococcus aureus [5]): 1 µg/mL | MIC (Klebsiella pneumoniae): 32 µg/mL | MIC (Acinetobacter baumannii): 4 µg/mL | MIC (Escherichia coli [6]): 16 µg/mL | MIC (Escherichia coli [7]): 16 µg/mL | MIC (Enterococcus faecium [8]): 2 µg/mL | MIC (Enterococcus faecalis [9]): 4 µg/mL | MIC (Streptococcus pyogenes [10]): 8 µg/mL | MIC (Staphylococcus aureus [11]): 0.25 µg/mL | MIC (Bacillus pumilus): 2 µg/mL | MIC (Bacillus subtilis): 0.5 µg/mL | MIC (Enterococcus faecalis [12]): 1 µg/mL | MIC (Enterococcus faecium [13]): 2 µg/mL

CC(C)c1ccc(/C=C/c2cc(-c3ccc(C(C)(C)C)cc3)[n+](C)cc2-c2ccccc2)cc1.[I-]
MIC (Streptococcus pyogenes [1]): 2 µg/mL | MIC [2]: 1 µg/mL | MIC (Staphylococcus aureus [3]): 0.5 µg/mL | MIC (Staphylococcus aureus [4]): 1 µg/mL | MIC (Staphylococcus aureus [5]): 0.25 µg/mL | MIC (Klebsiella pneumoniae): 8 µg/mL | MIC (Acinetobacter baumannii): 1 µg/mL | MIC (Escherichia coli [6]): 4 µg/mL | MIC (Escherichia coli [7]): 2 µg/mL | MIC (Enterococcus faecium [8]): 1 µg/mL | MIC (Enterococcus faecalis [9]): 1 µg/mL | MIC (Streptococcus pyogenes [10]): 4 µg/mL | MIC (Staphylococcus aureus [11]): 0.125 µg/mL | MIC (Bacillus pumilus): 0.25 µg/mL | MIC (Bacillus subtilis): 0.125 µg/mL | MIC (Enterococcus faecalis [12]): 0.5 µg/mL | MIC (Enterococcus faecium [13]): 1 µg/mL

CCCCCCOc1ccc(/C=C/c2cc(-c3ccccc3)c[n+](C)c2-c2ccccc2)cc1.[I-]
MIC (Streptococcus pyogenes [1]): 2 µg/mL | MIC [2]: 2 µg/mL | MIC (Staphylococcus aureus [3]): 1 µg/mL | MIC (Staphylococcus aureus [4]): 2 µg/mL | MIC (Staphylococcus aureus [5]): 1 µg/mL | MIC (Klebsiella pneumoniae): > 64 µg/mL | MIC (Acinetobacter baumannii): 2 µg/mL | MIC (Escherichia coli [6]): 4 µg/mL | MIC (Escherichia coli [7]): 8 µg/mL | MIC (Enterococcus faecium [8]): 2 µg/mL | MIC (Enterococcus faecalis [9]): 2 µg/mL | MIC (Streptococcus pyogenes [10]): 2 µg/mL | MIC (Staphylococcus aureus [11]): 0.25 µg/mL | MIC (Bacillus pumilus): 0.5 µg/mL | MIC (Bacillus subtilis): 2 µg/mL | MIC (Enterococcus faecalis [12]): 1 µg/mL | MIC (Enterococcus faecium [13]): 2 µg/mL
